In patent US10336746B1, “RAD51 inhibitors” (Cyteir Therapeutics, Inc., priority 2017, dated 2019):
pEC50: −log10 of the molar value. Read-outs that look alike come from different tables or passages of the source.

Experiments:
[1] = tested on: Daudi cell line (AID positive); experiment: Primary screening cell killing assay, Daudi cell line (AID positive); format: cell-based; details: Homo sapiens, 168 h, cell death on Day 7, Cell-Titer Glo
Outline: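 AID-positive Daudi cells, 1250 per well, were exposed to serially diluted compounds for 7 days at 37° C. Viability read by CellTiter-Glo luminescence; percent cell death and EC50 derived against untreated wells after media-blank subtraction.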

[2] = tested on: WI-38 cells (AID negative); experiment: Primary screening cell killing assay repeated in WI-38 cells (AID negative); format: cell-based; details: Homo sapiens, 168 h, cell death on Day 7, Cell-Titer Glo
Outline: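 Cell-killing counter-screen in AID-negative WI-38 cells, probing RAD51 inhibition via AID/RAD51 synthetic lethality. Viability luminescence (RLU) was media-subtracted, normalized to DMSO wells, and converted to percent kill (1 − normalized RLU) × 100; EC50 came from non-linear regression on a semi-log scale.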

Caco-2 cells = experiment: Bi-directional Caco-2 permeability; format: in vitro ADME; details: Caco-2
Procedure: (§1) Bi-directional Caco-2 permeability was assayed. Caco-2 cells were seeded onto permeable polycarbonate supports and allowed to differentiate for about 3 weeks prior to being used in the assays. The cells were then exposed to the compounds from either the apical or basolateral sides and incubated at 37 C for up to 90 minutes under light agitation. Compound transport was then measured using LC/MS/MS analysis at 30, 60, and 90 minutes.

[3] = Bi-directional Caco-2 permeability; format: in vitro ADME; details: human; for efflux ratio at 90 min: Caco-2, read-out: BA/AB Ratio; for Papp A→B at 90 min: Caco-2, apical to basolateral, read-out: AB Papp (cm/sec × 10^6); for Papp A→B at 90 min / Papp B→A at 90 min: 37 C, up to 90 minutes; for Papp B→A at 90 min: Caco-2, basolateral to apical, read-out: BA Papp (cm/sec × 10^6)
Procedure: as §1

[4] = Human liver microsome stability; format: in vitro ADME; details: human liver microsomes; for half-life / microsomal CLint: 37° C., 45 minutes; for microsomal CLint: read-out: Clearance (μg/min/mg)
Procedure: The stability of the claimed compounds was determined in the presences of human liver microsomes. The compounds were incubated with the microsomes at 37° C. for 45 minutes. Samples were analyzed using LC-MS/MS. Data analysis included half-life, clearance rate, and the percentage of hepatic blood flow (% QH) for each of the compounds in the different species.

Daudi (Lymphoma) = experiment: Cell line screen, Daudi; format: cell-based; details: Homo sapiens, AICDA Expression High
Procedure: (§2) The activity of the claimed compounds was measured in a variety of cell lines with different expression levels of activation induced cytidine deaminase (AICDA). The potency assay was repeated in all of the listed cell lines and the EC50 values recorded.

WSU-FSCCL (Lymphoma) = experiment: Cell line screen, WSU-FSCCL; format: cell-based; details: AICDA Expression Negative
Procedure: as §2

U-698-M (Lymphoma) = experiment: Cell line screen, U-698-M; format: cell-based; details: AICDA Expression High
Procedure: as §2

CCRF-SB (Leukemia) = experiment: Cell line screen, CCRF-SB; format: cell-based; details: Homo sapiens, AICDA Expression High
Procedure: as §2

KYSE-70 (Head and Neck) = experiment: Cell line screen, KYSE-70; format: cell-based; details: Homo sapiens, AICDA Expression Low
Procedure: as §2

KG-1 (Leukemia) = experiment: Cell line screen, KG-1; format: cell-based; details: AICDA Expression Negative
Procedure: as §2

KYSE-510 (Head and Neck) = experiment: Cell line screen, KYSE-510; format: cell-based; details: Homo sapiens, AICDA Expression Negative
Procedure: as §2

TOV-1120D (Ovary) = experiment: Cell line screen, TOV-1120D; format: cell-based; details: AICDA Expression Negative
Procedure: as §2

OV56 (Ovary) = experiment: Cell line screen, OV56; format: cell-based; details: AICDA Expression Low
Procedure: as §2

[5] = tested on: ARPE19/HPV16 (HPV Immortalized RPE); experiment: Cell line screen, ARPE19/HPV16; format: cell-based; details: ARPE-19, AICDA Expression Negative
Procedure: as §2

[6] = tested on: WI-38 (Normal Human Lung Fibroblast); experiment: Cell line screen, WI-38; format: cell-based; details: AICDA Expression Negative
Procedure: as §2

[7] = Pharmacokinetic (PK) study, plasma by LC-MS; format: in vivo, Rat; details: po @ 80 mg/kg (30% PEG400, 10% Vitamin E TPGS in water); for half-life: plasma
Procedure: PK studies in mice were used to determine the fate of the compounds in a whole organism. Rats were treated with the compounds either orally of via IV at the indicated doses and followed for up to 24 hours. Plasma samples were taken at different time points and analyzed by LC-MS.

[8] = Caco-2, Caco-2, AB direction, read-out: AB Recovery %
[9] = Caco-2, Caco-2, BA direction, read-out: BA Recovery %

SMILES | pEC50 [1] | pEC50 [2] | recovery at 90 min [3, 8] [%] | recovery at 90 min [3, 9] [%] | efflux ratio at 90 min [3] | Papp A→B at 90 min [3] [×10⁻⁶ cm/s] | Papp B→A at 90 min [3] [×10⁻⁶ cm/s] | % QH (percentage of hepatic blood flow) [4] [%] | half-life [4] [h] | microsomal CLint [4] [µL/min/mg] | pEC50 (Daudi (Lymphoma)) | pEC50 (WSU-FSCCL (Lymphoma)) | pEC50 (U-698-M (Lymphoma)) | pEC50 (CCRF-SB (Leukemia)) | pEC50 (KYSE-70 (Head and Neck)) | pEC50 (KG-1 (Leukemia)) | pEC50 (KYSE-510 (Head and Neck)) | pEC50 [5] | pEC50 [6] | F (%) @ 5 mg/kg ([7]; Rat Female) [%] | also measured
CC(C)OC(=O)Nc1ccc(-c2cnc([C@@H]3CC[C@@H](NC(=O)OC(C)C)CO3)s2)c(S(=O)(=O)NC(C)(C)C)c1 (relative stereo) [Ex. 60, trans-isopropyl N-[6-[5-[2-(tert-butylsulfamoyl)-4-(isopropoxycarbonylamino)phenyl]thiazol-2-yl]tetrahydropyran-3-yl]carbamate] | 6.00 to 7.00 | < 6.00 | – | – | – | – | – | – | – | – | – | – | – | – | – | – | – | – | – | – | BA/AB Ratio (Caco-2 cells): 0.9
CC(C)OC(=O)N[C@H]1CC[C@H](c2ncc(-c3ccc(NC(=O)NCc4ccccn4)cc3S(=O)(=O)NC(C)(C)C)s2)CC1 [Ex. 29, isopropyl ((1r,4r)-4-(5-(2-(N-(tert-butyl)sulfamoyl)-4-(3-(pyridin-2-ylmethyl)ureido)phenyl)thiazol-2-yl)cyclohexyl)carbamate] | ≥ 7.00 | < 6.00 | 93.9 | 90.9 | 2.2 | 10.9 | 24.1 | 78.8 | 0.342 | 68 | 7.37 | 7.17 | 6.95 | 5.89 | 5.33 | < 5.00 | < 5.00 | < 5.00 | < 5.00 | 8.39 | pEC50 (TOV-1120D (Ovary)): 5.04; pEC50 (OV56 (Ovary)): 5.04; F (%) @ 5 mg/kg ([7]; Rat Male): 3.69%; half-life ([7]; Rat Female): 4.66 h; half-life ([7]; Rat Male): 3.97 h
CC(C)OC(=O)N[C@H]1CC[C@H](c2ncc(-c3ccc(NC(=O)NCc4ncccc4F)cc3S(=O)(=O)NC(C)(C)C)s2)CC1 [Ex. 31, isopropyl ((1r,4r)-4-(5-(2-(N-(tert-butyl)sulfamoyl)-4-(3-((3-fluoropyridin-2-yl)methyl)ureido)phenyl)thiazol-2-yl)cyclohexyl)carbamate] | ≥ 7.00 | < 6.00 | 70.5 | 92.3 | 1.1 | 12.8 | 13.6 | 77.3 | 0.373 | 61.9 | 7.70 | > 7.40 | 7.51 | 5.66 | 5.33 | 5.06 | < 5.00 | < 5.00 | < 5.00 | 2.77 | F (%) @ 5 mg/kg ([7]; Rat Male): 1.49%; half-life ([7]; Rat Female): 4.75 h; half-life ([7]; Rat Male): 3.79 h
CC(C)OC(=O)Nc1ccc(-c2cnc([C@H]3CC[C@H](NC(=O)OC(C)C)CO3)s2)c(S(=O)(=O)NC(C)(C)C)c1 [Ex. 60B] | 6.00 to 7.00 | < 6.00 | 51.2 | 84.3 | 1.2 | 11.6 | 13.5 | – | – | – | – | – | – | – | – | – | – | – | – | – | –
CC(C)OC(=O)N[C@@H]1CC[C@@H](c2ncc(-c3ccc(NC(=O)NCc4ccccc4)cc3S(=O)(=O)NC(C)(C)C)s2)NC1 [Ex. 64, isopropyl ((3R,6S)-6-(5-(4-(3-benzylureido)-2-(N-(tert-butyl)sulfamoyl)phenyl)thiazol-2-yl)piperidin-3-yl)carbamate] | ≥ 7.00 | < 6.00 | 79.7 | 95.9 | 12.5 | 2.2 | 27.4 | – | – | – | – | – | – | – | – | – | – | – | – | – | –
